Experimental data as given in patent publication US20090016990A1, “Antimicrobial Compositions” (priority 2007, published 2009).

Key:
[1] = system: Pseudomonas aeruginosa ATCC 27853; test: MIC assay, planktonic growth, MBEC bioFILM PA panel
Method: The MBEC bioFILM PA panel is designed for use in determining antimicrobial agent susceptibility of both planktonic and biofilm Pseudomonas aeruginosa.
From this test, the minimum antibiotic concentration—in the presence and absence of a compound of the present invention—that will inhibit bacterial growth in solution (“MIC Assay”) is determined. The minimum antibiotic concentration—in the presence and absence of a compound of the present invention—that will prevent attachment of bacteria to a test surface (“MBEC Assay”) is determined. Approximately 1,000,000-10,000,000 bacteria attach in the absence of antibiotics; lesser numbers attach in the presence of antibiotics.
MBEC bioFilm PA panel—Panel wells are inoculated with planktonic Pseudomonas aeruginosa using a 95 peg inoculation lid. Panels and pegged lids are then incubated at 35° C. for 18 h. Planktonic susceptibility and resistance is determined by measuring inhibition and growth in the presence of antimicrobial agents after incubation. Biofilm susceptibility and resistance is determined by measuring inhibition and growth after peg sonication, biofilm bacteria recovery, then incubation for additional 18-24 h at 35° C.

P aeruginosa 10145 [2] = test: Synergy of Zosteric Acid (ZA) with HOCL, MIC in M9GY; format: cell-based
P aeruginosa 10145 [3] = test: Synergy of Zosteric Acid (ZA) with Kathon, MIC in M9GY; format: cell-based; details: ZA alone
[4] = system: Pseudomonas aeruginosa ATCC 27853; test: MBEC assay, biofilm inhibition (prevention of biofilm formation), MBEC bioFILM PA panel; format: cell-based
[5] = ZA alone, M9GY, highest value tested, used for SI calculations
[6] = HOCL with ZA (Qza) 250 ppm, M9GY
[7] = HOCL with ZA (Qza) 500 ppm, M9GY
[8] = HOCL with ZA (Qza) 1000 ppm, M9GY
[9] = HOCL with ZA (Qza) 2500 ppm, M9GY
[10] = HOCL with ZA (Qza) 5000 ppm, M9GY
[11] = HOCL with ZA (Qza) 7500 ppm, M9GY
[12] = HOCL with ZA (Qza) 10000 ppm, M9GY

CC(C)(C)c1ccc(OS(=O)(=O)Cl)cc1 [compound 9]
MIC values of antibiotics in the presence of the compound ([1]; antibiotics become less effective): increased

O=C(O)/C=C/c1ccc(OS(=O)(=O)O)cc1 [ZA, Zosteric Acid]
MIC at 24 hours, QZA (P aeruginosa 10145 [2]; [5]): 10,000 ppm | MIC at 48 hours, QZA (P aeruginosa 10145 [2]; [5]): 10,000 ppm | MIC for ZA (P aeruginosa 10145 [2]; table note, 10,000 ppm was the highest value tested): MIC for ZA is greater than 10,000 ppm, but since it was the highest value tested it was used for SI calculations. | QZA, MIC at 24 hours (ppm) (P aeruginosa 10145 [3]; 24 hours): 10,000 ppm | QZA, MIC at 48 hours (ppm) (P aeruginosa 10145 [3]; 48 hours): 10,000 ppm

OCl [HOCl]
MIC at 24 hours, Qhocl (P aeruginosa 10145 [2]; HOCL alone, M9GY): 40 ppm | MIC at 48 hours, Qhocl (P aeruginosa 10145 [2]; HOCL alone, M9GY): 40 ppm | MIC at 24 hours, Qhocl (P aeruginosa 10145 [2]; HOCL with ZA (Qza) 0 ppm, M9GY): 50 ppm | MIC at 48 hours, Qhocl (P aeruginosa 10145 [2]; HOCL with ZA (Qza) 0 ppm, M9GY): 60 ppm | SI-HOCL, 24 hours (P aeruginosa 10145 [2]; HOCL with ZA (Qza) 0 ppm, M9GY): 1.25 | SI-HOCL, 48 hours (P aeruginosa 10145 [2]; HOCL with ZA (Qza) 0 ppm, M9GY): 1.5 | MIC at 24 hours, Qhocl (P aeruginosa 10145 [2]; [6]): 30 ppm | MIC at 48 hours, Qhocl (P aeruginosa 10145 [2]; [6]): 30 ppm | SI-HOCL, 24 hours (P aeruginosa 10145 [2]; [6]): 0.775 | SI-HOCL, 48 hours (P aeruginosa 10145 [2]; [6]): 0.775 | MIC at 24 hours, Qhocl (P aeruginosa 10145 [2]; [7]): 50 ppm | MIC at 48 hours, Qhocl (P aeruginosa 10145 [2]; [7]): 50 ppm | SI-HOCL, 24 hours (P aeruginosa 10145 [2]; [7]): 1.3 | SI-HOCL, 48 hours (P aeruginosa 10145 [2]; [7]): 1.3 | MIC at 24 hours, Qhocl (P aeruginosa 10145 [2]; [8]): 50 ppm | MIC at 48 hours, Qhocl (P aeruginosa 10145 [2]; [8]): 50 ppm | SI-HOCL, 24 hours (P aeruginosa 10145 [2]; [8]): 1.35 | SI-HOCL, 48 hours (P aeruginosa 10145 [2]; [8]): 1.35 | MIC at 24 hours, Qhocl (P aeruginosa 10145 [2]; [9]): 50 ppm | MIC at 48 hours, Qhocl (P aeruginosa 10145 [2]; [9]): 50 ppm | SI-HOCL, 24 hours (P aeruginosa 10145 [2]; [9]): 1.5 | SI-HOCL, 48 hours (P aeruginosa 10145 [2]; [9]): 1.5 | MIC at 24 hours, Qhocl (P aeruginosa 10145 [2]; [10]): 40 ppm | MIC at 48 hours, Qhocl (P aeruginosa 10145 [2]; [10]): 40 ppm | SI-HOCL, 24 hours (P aeruginosa 10145 [2]; [10]): 1.5 | SI-HOCL, 48 hours (P aeruginosa 10145 [2]; [10]): 1.5 | MIC at 24 hours, Qhocl (P aeruginosa 10145 [2]; [11]): 40 ppm | MIC at 48 hours, Qhocl (P aeruginosa 10145 [2]; [11]): 50 ppm | SI-HOCL, 24 hours (P aeruginosa 10145 [2]; [11]): 1.75 | SI-HOCL, 48 hours (P aeruginosa 10145 [2]; [11]): 2 | MIC at 24 hours, Qhocl (P aeruginosa 10145 [2]; [12]): 60 ppm | MIC at 48 hours, Qhocl (P aeruginosa 10145 [2]; [12]): 60 ppm | SI-HOCL, 24 hours (P aeruginosa 10145 [2]; [12]): 2.5 | SI-HOCL, 48 hours (P aeruginosa 10145 [2]; [12]): 2.5

CCC(C)(C)c1ccc(OS(=O)(=O)Cl)cc1 [compound 7]
MIC values for several antibiotics in the presence of the compound ([1]; compound at 0.01%): reduced | number of the 47 antibiotics or antibiotic combinations enhanced in activity ([4]; of 47): 10 | Bacterial attachment to the test surfaces in the presence of the compound ([4]; with antibiotics): completely inhibited at lower concentrations of antibiotics
